Experimental data published in patent publication US20140148500A1, “PROGRAMMABLE SELF-ASSEMBLED NANOSTRUCTURES BASED ON SIDECHAIN-MODIFIED PNA FOR THE MULTIVALENT DISPLAY OF LIGANDS” (priority 2010, published 2014).
Several values for one entry are separate records, joined by “and”; a condition that tells them apart may be missing. Equal values may be shown once.

Test system: C32 cells
Experiment: Cell adhesion assay, IC50 of multivalent RGD constructs (method of Sipes et al.)
Type: cell-based
Settings: read-out: IC50 Data (nM), RGD control result in parenthesis, unnormalized, control run alongside the data point it follows
Description: Multi 1 indicates one PNA construct associated with the DNA. Multi 2 indicates two PNA construct associated with the DNA and so on. […] In the constructs depicted herein, the designator in parentheses (T5, for example) represents the number of thymine bases in the DNA sequence that is inserted to create a spacer between adjacent PNA binding portions of the DNA. T0 represents the absence of any spacer thymine bases. […] “x” indicates no data is available for that experiment. […] Constructs from Example 5 were utilized herein.

N=C(N)NCCC[C@@H]1NC(=O)[C@H](CCCCN)NC(=O)[C@@H](Cc2ccccc2)NC(=O)[C@H](CC(=O)O)NC(=O)CNC1=O [RGD]
IC50: 475 nM and 329 nM and 690 nM
